Tests used:
[1] = organic solvents such as alcohols, ethers, esters, ketones; cited from earlier work
[2] = solubility of NDAC compared with cystine; format: physicochemical
[3] = system: skin cells; assay: potentiating glutathione synthesis within skin cells; format: cell-based; details: compared with cystine

| Compound | solubility in organic solvents [1] | solubility relative to cystine [2] | performance for potentiating glutathione synthesis within skin cells [3] |
| --- | --- | --- | --- |
| N[C@@H](CSSC[C@H](N)C(=O)O)C(=O)O [cystine, L-Cystine] | practically insoluble |  |  |
| CC(=O)N[C@@H](CSSC[C@H](NC(C)=O)C(=O)O)C(=O)O [NDAC, N,N′-diacetyl-L-Cystine] |  | more soluble | comparable to that of cystine |

Source: patent US20230183176A1, “PROCESS OF MAKING N,N'-DIACETYL-L-CYSTINE” (Conopco, Inc., d/b/a UNILEVER, priority 2020, published 2023)
